Data set [1] concerns mice sensitized with oxazolone. It is filed as in vivo, mouse. The following applies: ear measured 24 hours after oxazolone challenge, BALB/c mice. How it is done:
Groups of 5 female inbred BALB/c mice (The Jackson Laboratory, Bar Harbor, Me.) were sensitized on the shaved abdominal skin with 2% oxazolone (100 μl) dissolved in acetone/olive oil [4:1 (vol/vol)] applied topically. Delayed type hypersensitivity (DTH) was elicited 5 days later by challenging the mice with 0.5% oxazolone in acetone/olive oil (10 μl given topically to each side of the ear). A constant area of the ear was measured immediately before and 24 hours after the challenge using a Mitutoyo engineer's micrometer. The percent inhibition of DTH is calculated as follows:
% Inhibition=[1-{(treated−negative control)/(positive control−negative control)}]×100.
The positive control is the DTH reaction to oxazolone elicited in sensitized mice without treatment. The negative control is the background swelling produced by the oxazolone antigen in naïve non-sensitized mice.
Peptides Nos. 1-5 were given to the mice by mini perfusion pumps (alzet osmotic pump model 2001), which contained the indicated peptide (40 μg; 200 μl). The pumps were implanted under the mouse skin one day before oxazolone sensitization and they released the peptide in a rate of 1 μl per hour (0.2 μg/hour) for 7 days.
Peptides Nos. 6-10 were given to the mice by subcutaneously injection (1 μg or 10 μg per mouse), every day, starting at one day before oxazolone sensitization and ending at day 5 post DTH initiation.

Data set [2] relates to anti-CD3 antibody induced IFNγ secretion from T cells. Briefly: IFNγ secretion by anti-CD3 activated T cells. Further details: concentration or dose not given beside the values. The data set is classed as cell-based, human. As to conditions: 24 hours; ELISA; FIG. 7B. The protocol: (§1) Human T cells were purified and maintained in culture (RPMI containing 10% FCS, 1% Pyruvate, 1% glutamine, 1% antibiotics, 7.5% CO2, humidified atmosphere) for 15 hr before they were transferred to RPMI and activated (2 hr, 37° C.) with the indicated concentrations of the peptides. The cells were then plated (1.5×10^6 cells/0.5 ml/well) in 24 wells plates (non-tissue culture grade) precoated with anti-CD3 mAb in order to stimulate the cells to secrete cytokines. After 24 hours, the supernatants were collected and their cytokine content (TNFα and IFNγ) was determined by ELISA using anti-IFNγ and anti TNFα mAb (Pharmingen; San Diego, Calif.) according to the manufacturer's instructions.
In general terms: In an ELISA, binding on a coated surface is turned into a signal by an enzyme label.

Data set [3] deals with anti-CD3 antibody induced TNFα secretion from T cells. As to the kind of experiment: TNFα secretion by anti-CD3 activated T cells. It is filed as cell-based, human. The following applies: peptide 100 ng/ml; 24 hours; ELISA; FIG. 7A. How it is done:
as §1

The subject of data set [4] is NF-κB. As to the kind of experiment: Nuclear translocation of NF-κB in T cells (Western blot). The data set is classed as cell-based. The following applies: peptide 100 ng/ml for 2 hours, then anti-CD3 mAb 24 hr; human T cells. An excerpt: To address the modulatory role of the wound fluid peptides on the signal transduction cascade leading to regulation of T-cell secretion of TNF-α(and IFN-γ, the nuclear translocation of NF-κB was detected by probing nuclear and cytoplasmic T-cell extracts using mAb specific for the p65 subunit of NF-κB. The nuclear protein Lamin B was used as continuatively expressed control protein for the quantification of protein amounts.
Human T cells. T cells were purified from the peripheral blood of healthy human donors (Blood Bank; Tel-Hashomer, Israel). The whole blood was incubated (20 min, 22° C.) with RosetteSep™ human T-cell enrichment cocktail (StemCell Technologies, Vancouver, BC, Canada). The remaining unsedimented cells were then loaded onto Lymphocyte Separation Medium (ICN Biomedicals; Belgium), isolated by density centrifugation, and washed with PBS. The purified cells (>95% CD3^+ T cells) so obtained were cultured in RPMI containing antibiotics and 10% heat-inactivated FCS. Western blot analysis of T-cell nuclear extracts. Purified T cells (5×10^6) were preincubated with the peptides (100 ng/ml) for 2 hours (37° C. in a 7% CO2, humidified atmosphere). The cells were then replated in 24-well plates pre-coated with anti-CD3 mAb for 24 hr (37° C. in a 7% CO2, humidified atmosphere). T cells were lysed in 10 mM HEPES, 1.5 mM MgCl2, 1 mM dithiothreitol (DTT), 1 mM PMSF, 0.5% Nonidet P-40. The lysates were incubated on ice for 10 min and centrifuged at 2000 rpm for 10 min at 4° C. The supernatants (cytoplasmic extracts) were transferred and the pellet (nuclei) was suspended in buffer containing 30 mM HEPES, 450 mM NaCl, 25% Glycerol, 0.5 mM EDTA, 6 mM DTT, 12 mM MgCl2 1 mM PMSF, 10 μg/ml leupeptin, 10 μg/ml pepstatin, 1% phosphatase inhibitor cocktail, and the suspension was incubated on ice for 30 min. The lysates were cleared by centrifugation (30 min, 14×10^3 rpm, 4° C.), and the resulting supernatants analyzed for protein content. […]

The test system of data set [5] is T cells. Briefly: Chemotaxis assay: T cell migration toward SDF-1α. It is filed as cell-based. As to conditions: SDF-1α 250 ng/ml, 3 hr. The protocol:
The migration of ^51-[Cr]-labeled T cells was examined in […] Transwell chemotaxis apparatus (6.5-mm diameter; Corning, N.Y.), consisting of two compartments separated by polycarbonate filters (5 μm pore size) pretreated (1 hr, 37° C.) with FN (25 μg/ml). ^51-[Cr]-labeled T cells (2×10^5 in 100 μl of RPMI containing 0.1% BSA and antibiotics), which were pre-incubated with the indicated concentrations of peptides (30 min, 37° C.), were added to the upper chambers. The bottom chambers contained 0.6 ml of the same media, with or without human Stromal cell-Derived Factor-1α (SDF-1α; 250 ng/ml). After incubation at 37° C. for 3 hr (7.5% CO2-humidified atmosphere), cells that had transmigrated into the lower wells were collected, centrifuged, and lysed (in 100 μl of distilled water containing 1 M NaOH and 0.1% Triton X-100), and the radioactivity in the resulting supernatants was determined with a γ-counter. The percentage (±SD) of cell migration was calculated as the radioactivity counts in the lysates of the lower chambers (representative of the migrating cells) divided by the total counts (representative of 2×10^5 cells).

Data set [6] relates to Jurkat and THP-1 cells. As to the kind of experiment: TNFα secretion by PMA/PHA induced Jurkat and THP-1 cells. The data set is classed as cell-based, human. As to conditions: 48 hours, ELISA. How it is done: Jurkat cells human T cell lymphoma line) (2×10^6 cells/ml) cultured in RPMI-1640 supplemented with 10% FCS were activated with PMA (50 ng/ml) and phytohaemagglutinin PHA (4 µg/ml) for 6 hours at 37° C. (7.5% CO2-humidified atmosphere). Thereafter, the cells were washed, plated on 24-well plates (10^6 cells/well in 0.5 ml), and incubated (1 hour at 37° C., 7.5% CO2-humidified atmosphere) with the indicated concentrations of peptides 1-5. Following the incubation, THP-1 cells (human monocytic cell line derived from a patient with acute monocytic leukaemia; 1.25×10^5 cells/0.5 ml/well) were added to the wells. After 48 hours, the supernatants were collected and their TNF[…] content was determined by ELISA using anti TNF[…] mAb (Pharmingen; San Diego, Calif.) according to the manufacturer's instructions.

Data set [7] can be described thus: Stability to serum proteases (HPLC). The data set is classed as in vitro ADME, mouse. How it is done: To test the stability of peptide No. 5 to blood proteases, 100 μl of a 1 mg/ml solution of the peptide were incubated at 37° C. with 40 μl of mouse serum. Samples withdrawn after 0, 2, 4 or 24 hours were precipitated with 200 μl of methanol and centrifuged for 1 min at 10,000×g. The crude solution was analyzed by HPLC equipped with a 220 nm detector. The crude solution was diluted in 0.1% trifluoroacetic acid (TFA), applied on a RP-18^e column (Chromolith) (MERCK, Darmstadt, Germany), and the HPLC conditions were as follows: mobile phase A, TFA (0.1%) in water; mobile phase B: TFA (0.1%) in acetonitrile (75%). The flow rate was 3 ml/min and the gradient was 0 to 100% B for the first 10 min, 100% B for additional 5 min, and for the last 5 min the gradient was 100% B to 0.

[8] abbreviates: FIG. 2, peptides subcutaneously 1 μg or 10 μg per mouse every day.
[9] abbreviates: FIG. 1, peptides by implanted osmotic pump, 0.2 μg/hour for 7 days.

This is an account of results in patent publication US20080311103A1, “Anti-Inflammatory Peptides and Methods of Use Thereof” (YEDA RESEARCH AND DEVELOPMENT CO. LTD. at THE WEIZMANN …, priority 2004, published 2008).

Like-named read-outs stand apart in the source and are kept apart here. Ends that are not written are not given here.

As to “ELERPGGNEI [compound 6, residues 260-269 of Fibrinogen Aα; identified in wound fluids, then synthesized]”, the “inhibition of DTH response” value in data set [1] (setting [8]) is recorded as 50%. For the same substance, the “inhibition of anti-CD3 antibody induced IFNγ secretion from T cells” value in data set [2] is recorded as 40%. Moreover, the “inhibition of anti-CD3 antibody induced TNFα secretion from T cells” value in data set [3] is reported as 40%. In data set [4], the “NF-κB translocation to the nucleus” value was “significant down-regulation”.
Regarding “TDYGKDLMEKV [peptide No. 4, residues 42-52 of Apo A-II; identified in wound fluids, then synthesized]”, the “inhibition of DTH response” value in data set [1] (setting [9]) is “hardly inhibited”. The “inhibition of T cell migration toward SDF-1α” value in data set [5] (peptide 1000 ng/ml) stood at 30%. Also, in data set [2], the “inhibition of anti-CD3 antibody induced IFNγ secretion from T cells” value is about 50%. For the same substance, the “inhibition of TNFα secretion by Jurkat and THP-1 cells compared to PMA/PHA alone” value in data set [6] (peptide 1 μg/ml) is recorded as 40%. Also, the “inhibition of anti-CD3 antibody induced TNFα secretion from T cells” value in data set [3] was about 50%.
Take “DHSKNPVGV [compound 8, residues 320-328 of ADAM 8; identified in wound fluids, then synthesized]”: the “inhibition of DTH response” value in data set [1] (setting [8]) turned out to be 60%. Moreover, in data set [2], the “inhibition of anti-CD3 antibody induced IFNγ secretion from T cells” value is on record as 15%. The “inhibition of anti-CD3 antibody induced TNFα secretion from T cells” value in data set [3] came out at 30%.
For “NDADDST [compound 9, residues 302-308 of Cadherin 4; identified in wound fluids, then synthesized]”, in that order: “hardly inhibited”, 40% and about 50%.
On to “MIESSMN [compound 1, residues 827-833 of LRP5; identified in wound fluids, then synthesized]”, for which the “inhibition of DTH response” value in data set [1] (setting [9]) is listed as “hardly inhibited”. Moreover, the “inhibition of T cell transmigration toward SDF-1α” value in data set [5] (concentration range 10-1000 ng/ml) is recorded as “did not show a significant inhibition”. In addition, in data set [6] (concentration range 1-1000 ng/ml), the “inhibition of TNFα secretion by Jurkat and THP-1 cells” value was “did not exert a significant inhibition”.
For “ALTDMPQM [compound 7, residues 250-257 of Fibrinogen Aα; identified in wound fluids, then synthesized]”, the “inhibition of DTH response” value in data set [1] (setting [8]) is on record as “hardly inhibited”. The “inhibition of anti-CD3 antibody induced IFNγ secretion from T cells” value in data set [2] was 30%. Moreover, the “inhibition of anti-CD3 antibody induced TNFα secretion from T cells” value in data set [3] was found to be 30%.
As to “NQGEESAEI [compound 10, residues 470-478 of Calcitonin receptor; identified in wound fluids, then synthesized]”, the “inhibition of DTH response” value in data set [1] (setting [8]) was 30%. Besides, the “inhibition of anti-CD3 antibody induced IFNγ secretion from T cells” value in data set [2] is 75%. In addition, in data set [3], the “inhibition of anti-CD3 antibody induced TNFα secretion from T cells” value is on record as about 70%.
On to “NPDESSKPNMI [peptide No. 5, NPDESSKPNMI]”, for which the “% Area (HPLC peak of peptide)” value in data set [7] (Test 1, 0 hours incubation with mouse serum) was determined as 74.23%; in data set [7] (Test 1, 2 hours incubation at 37° C. with mouse serum), 75.08%; in data set [7] (Test 1, 4 hours incubation at 37° C. with mouse serum) it was 68.94%; in data set [7] (Test 1, 24 hours incubation at 37° C. with mouse serum) it was 68.69%; in data set [7] (Test 2, 0 hours incubation with mouse serum), 90.62%; in data set [7] (Test 2, 2 hours incubation at 37° C. with mouse serum), 87.32%. Also, the “resistance to serum proteases” value in data set [7] (mouse serum, up to 24 hours) is on record as “highly resistant”. The metabolised at 2 h, 0.71 mg/ml in data set [7] (mouse, mouse serum, after 2 hours (test 2), read-out: peptide degraded in the presence of mouse serum) was about 3.5%. In addition, the metabolised at 4 h, 0.71 mg/ml in data set [7] (mouse, mouse serum, after 4 hours (test 1), read-out: peptide degraded in the presence of mouse serum) stood at 7.5%. Further, the metabolised at 24 h, 0.71 mg/ml in data set [7] (mouse, mouse serum, after 24 hours (test 1), read-out: peptide degraded in the presence of mouse serum) was found to be 7.5%. Further, in data set [7] (mouse, mouse serum, after 24 hours of exposure to serum proteases, read-out: peptide still present as an intact peptide), the remaining at 24 h, 0.71 mg/ml was over 90%.
